A value given as a limit tells only on which side of the number the result lay.

As a reminder, the EC50 is the concentration at which the effect is half-maximal.

The first assay concerns the target T1, human GPR120 (Homo sapiens, UniProt Q5NUL3).
T1 construct: host or cells: HEK293 cells co-expressing Gqi5
T1 sequence (Q5NUL3 1-361): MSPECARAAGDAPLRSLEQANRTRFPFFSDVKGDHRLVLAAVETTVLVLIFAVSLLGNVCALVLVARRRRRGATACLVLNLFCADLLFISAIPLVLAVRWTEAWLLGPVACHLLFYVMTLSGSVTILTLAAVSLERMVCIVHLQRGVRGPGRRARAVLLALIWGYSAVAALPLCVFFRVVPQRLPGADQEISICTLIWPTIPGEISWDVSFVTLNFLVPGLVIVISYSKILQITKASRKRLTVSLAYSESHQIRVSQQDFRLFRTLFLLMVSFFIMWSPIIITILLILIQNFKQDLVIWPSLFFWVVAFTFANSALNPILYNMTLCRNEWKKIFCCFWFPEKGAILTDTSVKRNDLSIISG
In words: Intracellular Ca2+ assay in human GPR120 stable cell line (FLIPR Calcium 4 dye, Flexstation). Format: cell-based. To be noted: % activity at 2.5 µM compared to the maximal activity of the compound of Example 25 at 2.5 µM (=100%); HEK293 cells co-expressing Gqi5; read-out: % Activity (Ex. 25 Reference Compound). Here is the method: Human GPR120 stable cell line was purchased from Multispan Inc (26219 Eden Landing Road, Hayward, CA94545). This GPR120 cell line was generated in HEK293 cells co-expressing Gqi5. In this cell line, the Flag epitope tag (DYKDDDDK) was fused to the amino terminus of human GPR120 protein.
The concentration of intracellular Ca^2+ was measured as described below. Human GPR120 cells were plated in 96 well plates (Poly-D-Lysine coated black/clear Plate, Greiner Bio-One) at 70,000 cells per well and cultured overnight in conditions of 37°C and 5% CO2. A Ca^2+ assay dye stock solution was prepared by adding 10 mL of assay buffer (HBSS/20mM HEPES, pH 7.4) to FLIPR Calcium 4 Assay Bulk Kit (Molecular Devices). The 10 mL of Ca^2+ assay dye solution was prepared by further diluting 0.5 mL of Ca^2+ assay dye stock solution with 10 mL of assay buffer. The medium of the cells was removed and immediately 100 µL of the Ca^2+ assay dye solution was dispensed into each well followed by incubation at 37°C and 5% CO2 for 50 minutes to incorporate the Ca^2+ dye into the cells. The cell plate was then placed in the Flexstation (Molecular Devices) for 20 minutes at 37°C. Compounds were dissolved in 100% DMSO and diluted to desired concentrations with assay buffer and placed in the Flexstation simultaneously with the cell plate for 20 minute incubation at 37°C prior to reading. Fluorescence intensity was measured immediately following compound addition (25 µL/well) on the Flexstation at an excitation wavelength of 485 nm and an emission wavelength of 525 with 515 nm auto cutoff. The resulting increase in fluorescence intensities corresponds to increases in intracellular Ca^2+ levels.
Compounds were dissolved in 100% DMSO to a concentration of 20 mM to provide stock solutions. To determine activity against human GPR120, compounds were added with human GPR120 stably expressing cells (described above), at eight desired concentrations ranging from 0.00001 to 20 µM, in 96 well plates and fluorescence intensities were measured for 90 seconds with 2-second intervals. An EC50 value (concentration of the GPR120 agonist where 50% of the agonist's maximal activity is observed) was calculated using the changes (Max-Min) of fluorescence intensity.
To determine percent activity for a tested compound, the fluorescence intensity value obtained at a particular concentration were compared to the maximal fluorescence intensity value obtained for reference compound GW9508 (4-[[(3-phenoxyphenyl)methyl]amino]benzene propanoic acid; British Journal of Pharmacology 2006 148, 619-628) or the compound of Example 25. When GW9508 was used as the reference compound, the maximal activity of GW9508 at 6.7µM was designated as 100% activity. When the compound of Example 25 was used as the reference compound, the maximal activity of the compound of Example 25 at 2.5 µM was designated as 100% activity. Typically, the GW9508 activity reached a maximum at a concentration of approximately 6.7 µM and typically the compound of Example 25 reached a maximum activity at approximately 2.5µM. […]
Take `CC1(C)Cc2cc(F)cc(CCc3ccc(OCC(=O)O)cc3)c2O1` [Example 70, 2-(4-(2-(5-fluoro-2,2-dimethyl-2,3-dihydrobenzofuran-7-yl)ethyl)phenoxy)acetic acid]: the activity at 2.5 µM was found to be 118%.

The same assay, now with this note: HEK293, % activity at 2.5 µM compared to the maximal activity of the compound of Example 25 at 2.5 µM (=100%); HEK293 cells co-expressing Gqi5; read-out: % Activity (Ex. 25 Reference Compound).
Turning to `CC(Cc1ccc(COc2cccc3c2OC(C)(C)C3)c(F)c1)C(=O)O` (stereo not shown) [Example 44, 3-(4-(((2,2-dimethyl-2,3-dihydrobenzofuran-7-yl)oxy)methyl)-3-fluorophenyl)-2-methylpropanoic acid], the activity at 2.5 µM was 157%.

Consider `CC(Cc1ccc(OCc2cc(F)cc3c2OCOC3)cc1)C(=O)O` (stereo not shown) [Example 45, 3-(4-((6-fluoro-4H-benzo[d][1,3]dioxin-8-yl)methoxy)phenyl)-2-methylpropanoic acid], for which the activity at 2.5 µM was found to be 79.6%.

Regarding `Cc1cc(OCc2cc(F)cc3c2OC(C)(C)C3)ccc1CCC(=O)O` [Example 46, 3-(4-((5-fluoro-2,2-dimethyl-2,3-dihydrobenzofuran-7-yl)methoxy)-2-methylphenyl)propanoic acid], the activity at 2.5 µM was 114%.

Consider `CC1(C)Cc2cc(F)cc(COc3ccc(CCC(=O)O)c(Cl)c3)c2O1` [Example 47, 3-(2-chloro-4-((5-fluoro-2,2-dimethyl-2,3-dihydrobenzofuran-7-yl)methoxy)phenyl)propanoic acid], for which the activity at 2.5 µM turned out to be 111%.

For `CC1(C)Cc2cc(Cl)cc(COc3ccc(CCC(=O)O)c(F)c3)c2O1` [Example 53, 3-(4-((5-chloro-2,2-dimethyl-2,3-dihydrobenzofuran-7-yl)methoxy)-2-fluorophenyl)-propanoic acid], the activity at 2.5 µM came to 143%.

On to `CC1(C)Cc2cc(Cl)cc(COc3cc(F)c(CCC(=O)O)c(F)c3)c2O1` [Example 54, 3-(4-((5-chloro-2,2-dimethyl-2,3-dihydrobenzofuran-7-yl)methoxy)-2,6-difluorophenyl)propanoic acid], for which the activity at 2.5 µM turned out to be 139%.

Consider `COc1cc(CCC(=O)O)c(Br)cc1OCc1cc(F)cc2c1OC(C)(C)C2` [Example 56, 3-(2-bromo-4-((5-fluoro-2,2-dimethyl-2,3-dihydrobenzofuran-7-yl)methoxy)-5-methoxyphenyl)propanoic acid], for which the activity at 2.5 µM came to 109%.

Consider `CC1(C)Cc2cc(Cl)cc(COc3ccc(SCC(=O)O)cc3)c2O1` [Example 59, 2-((4-((5-chloro-2,2-dimethyl-2,3-dihydrobenzofuran-7-yl)methoxy)phenyl)thio)-acetic acid], for which the activity at 2.5 µM amounted to 118%.

As for `CC1(C)Cc2cc(F)cc(COc3ccc(CCC(=O)O)c4c3CCC4)c2O1` [Example 63, 3-(7-((5-fluoro-2,2-dimethyl-2,3-dihydrobenzofuran-7-yl)methoxy)-2,3-dihydro-1H-inden-4-yl)propanoic acid], the activity at 2.5 µM stood at 95%.

`CC(Cc1ccc(NCc2cc(F)cc3c2OC(C)(C)C3)cc1)C(=O)O` (stereo not shown) [Example 67, 3-(4-(((5-fluoro-2,2-dimethyl-2,3-dihydrobenzofuran-7-yl)methyl)amino)phenyl)-2-methylpropanoic acid]: the activity at 2.5 µM stood at 142%.

Take `CC(Cc1ccc(NC(=O)c2cc(F)cc3c2OC(C)(C)C3)cc1)C(=O)O` (stereo not shown) [Example 68, 3-(4-(5-fluoro-2,2-dimethyl-2,3-dihydrobenzofuran-7-carboxamido)phenyl)-2-methylpropanoic acid]: the activity at 2.5 µM was found to be 69%.

Consider `CCOC(Cc1cc(F)c(OCc2cc(F)cc3c2OC(C)(C)C3)c(F)c1)C(=O)O` (stereo not shown) [Example 69, 3-(3,5-difluoro-4-((5-fluoro-2,2-dimethyl-2,3-dihydrobenzofuran-7-yl)methoxy)phenyl)-2-ethoxypropanoic acid], for which the activity at 2.5 µM came to 78.5%.

On to `CC1(C)Cc2cc(Cl)cc(COc3ccc(CCC(=O)O)c(-c4ccccc4)c3)c2O1` [Example 71, 3-(5-((5-chloro-2,2-dimethyl-2,3-dihydrobenzofuran-7-yl)methoxy)-[1,1'-biphenyl]-2-yl)propanoic acid], for which the activity at 2.5 µM is 134%.

In the case of `CCCc1cc(OCc2cc(Cl)cc3c2OC(C)(C)C3)c(F)cc1CCC(=O)O` [Example 73, 3-(4-((5-chloro-2,2-dimethyl-2,3-dihydrobenzofuran-7-yl)methoxy)-5-fluoro-2-propylphenyl)propanoic acid], the activity at 2.5 µM came to 115%.

For the compound `CC(Cc1ccc(OCc2cc(Cl)cc3c2OC(C)(C)C3=O)c(C(F)(F)F)c1)C(=O)O` (stereo not shown) [Example 79, 3-(4-((5-chloro-2,2-dimethyl-3-oxo-2,3-dihydrobenzofuran-7-yl)methoxy)-3-(trifluoromethyl)phenyl)-2-methylpropanoic acid], the activity at 2.5 µM turned out to be 3.85%.

For the compound `CC(Cc1ccc(OCc2cc(Cl)cc3c2OC(C)(C)C3O)c(F)c1)C(=O)O` (stereo not shown) [Example 80, 3-(4-((5-chloro-3-hydroxy-2,2-dimethyl-2,3-dihydrobenzofuran-7-yl)methoxy)-3-fluorophenyl)-2-methylpropanoic acid], the activity at 2.5 µM amounted to 86.2%.

For `CC(Cc1ccc(OCc2cc(-c3ccc(Cl)cc3)cc3c2OC(C)(C)C3)cc1)C(=O)O` (stereo not shown) [Example 82, 3-(4-((5-(4-chlorophenyl)-2,2-dimethyl-2,3-dihydrobenzofuran-7-yl)methoxy)phenyl)-2-methylpropanoic acid], the activity at 2.5 µM was determined as 24%.

In the case of `COc1cccc(-c2cc(COc3ccc(CC(C)C(=O)O)cc3)c3c(c2)CC(C)(C)O3)c1` (stereo not shown) [Example 86, 3-(4-((5-(3-methoxyphenyl)-2,2-dimethyl-2,3-dihydrobenzofuran-7-yl)methoxy)phenyl)-2-methylpropanoic acid], the activity at 2.5 µM came to 5.23%.

As to `CC(Cc1ccc(OCc2cc(Cl)cc3c2OC(C)(C)C3)c(CN(C)C)c1)C(=O)O` (stereo not shown) [Example 88, 3-(4-((5-chloro-2,2-dimethyl-2,3-dihydrobenzofuran-7-yl)methoxy)-3-((dimethylamino)methyl)phenyl)-2-methylpropanoic acid], the activity at 2.5 µM was found to be 119%.

For `CCN(CC)c1cc(COc2ccc(CC(C)C(=O)O)cc2)c2c(c1)CC(C)(C)O2` (stereo not shown) [Example 89, 3-(4-((5-(diethylamino)-2,2-dimethyl-2,3-dihydrobenzofuran-7-yl)methoxy)phenyl)-2-methylpropanoic acid], the activity at 2.5 µM is 82.3%.

As for `CC(Cc1ccc(OCc2cc(-n3cnnn3)cc3c2OC(C)(C)C3)cc1)C(=O)O` (stereo not shown) [Example 90, 3-(4-((2,2-dimethyl-5-(1H-tetrazol-1-yl)-2,3-dihydrobenzofuran-7-yl)methoxy)phenyl)-2-methylpropanoic acid], the activity at 2.5 µM was determined as 75.9%.

`CC(Cc1ccc(OCc2ccc(F)c3c2CC(C)(C)O3)cc1)C(=O)O` (stereo not shown) [Example 91, 3-(4-((7-fluoro-2,2-dimethyl-2,3-dihydrobenzofuran-4-yl)methoxy)phenyl)-2-methylpropanoic acid]: the activity at 2.5 µM amounted to 121%.

Still in this assay, the particulars now being: eight concentrations from 0.00001 to 20 µM; changes (Max-Min) of fluorescence intensity.
Consider `CC(Cc1ccc(COc2cccc3c2OC(C)(C)C3)c(F)c1)C(=O)O` (stereo not shown) [Example 44, 3-(4-(((2,2-dimethyl-2,3-dihydrobenzofuran-7-yl)oxy)methyl)-3-fluorophenyl)-2-methylpropanoic acid], for which the EC50 is 1 to 10 µM.

Consider `CC(Cc1ccc(OCc2cc(F)cc3c2OCOC3)cc1)C(=O)O` (stereo not shown) [Example 45, 3-(4-((6-fluoro-4H-benzo[d][1,3]dioxin-8-yl)methoxy)phenyl)-2-methylpropanoic acid], for which the EC50 is greater than 10 µM.

Regarding `CC(Cc1ccc(OCc2cc(Cl)cc3c2OC(C)(C)C3O)c(F)c1)C(=O)O` (stereo not shown) [Example 80, 3-(4-((5-chloro-3-hydroxy-2,2-dimethyl-2,3-dihydrobenzofuran-7-yl)methoxy)-3-fluorophenyl)-2-methylpropanoic acid], the EC50 is 1 to 10 µM.

Consider `CC(Cc1ccc(OCc2cc(Br)cc3c2OC(C)(C)C3)cc1)C(=O)O` (stereo not shown) [Example 81, 3-(4-((5-bromo-2,2-dimethyl-2,3-dihydrobenzofuran-7-yl)methoxy)phenyl)-2-methylpropanoic acid], for which the EC50 was no more than 1 µM.

Take `CC(Cc1ccc(OCc2cc(-c3ccc(Cl)cc3)cc3c2OC(C)(C)C3)cc1)C(=O)O` (stereo not shown) [Example 82, 3-(4-((5-(4-chlorophenyl)-2,2-dimethyl-2,3-dihydrobenzofuran-7-yl)methoxy)phenyl)-2-methylpropanoic acid]: the EC50 lay in the range of 1 to 10 µM.

Values taken from patent EP2582674B1 (Cymabay Therapeutics, Inc., priority 2010, dated 2011).
